US12122779B2, “Pyrrolo-pyridazine derivatives as muscarinic M1 receptor positive allosteric modulators” (SUVEN LIFE SCIENCES LIMITED, priority 2018, dated 2024)

Legend:
[1] = target: T1, recombinant human Muscarinic M1 receptor (Homo sapiens, UniProt P11229); test: Allosteric potency EC50 for muscarinic M1 receptor, CHO pCRE-Luc reporter cell-based assay with EC20 of acetylcholine; conditions: CHO cells, luciferase activity, in presence of EC20 of acetylcholine, 4 hours
T1 sequence (P11229 1-460): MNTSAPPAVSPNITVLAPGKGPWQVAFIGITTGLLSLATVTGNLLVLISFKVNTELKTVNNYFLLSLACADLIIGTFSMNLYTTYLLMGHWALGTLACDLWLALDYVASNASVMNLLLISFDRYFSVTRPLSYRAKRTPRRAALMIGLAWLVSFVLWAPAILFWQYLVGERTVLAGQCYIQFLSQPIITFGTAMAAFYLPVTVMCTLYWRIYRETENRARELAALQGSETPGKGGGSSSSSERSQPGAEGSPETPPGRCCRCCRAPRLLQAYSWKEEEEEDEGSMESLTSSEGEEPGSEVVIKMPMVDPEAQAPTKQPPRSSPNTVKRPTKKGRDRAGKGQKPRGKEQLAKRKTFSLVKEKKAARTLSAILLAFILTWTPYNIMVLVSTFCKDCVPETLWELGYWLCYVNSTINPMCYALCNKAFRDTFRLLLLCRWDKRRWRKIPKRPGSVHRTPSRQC
Method: Determination of Allosteric Potency EC50 Values for Muscarinic M1 Receptor
A stable CHO cell line expressing recombinant human Muscarinic M1 receptor and pCRE-Luc reporter system was used for cell-based assay. The assay offers a non-radioactive based approach to determine binding of a compound to GPCRs. In this specific assay, the level of intracellular cyclic AMP which is modulated by activation or inhibition of the receptor is measured. The recombinant cells harbor luciferase reporter gene under the control of cyclic AMP response element.
The above cells were grown in 96 well clear bottom white plates in Hams F12 medium containing 10% fetal bovine serum (FBS). Prior to the addition of compounds or standard agonist, cells were serum starved overnight. Increasing concentrations of test compounds were added along with EC20 of acetylcholine in OptiMEM medium to the cells. The incubation was continued at 37° C. in CO2 incubator for 4 hours. Medium was removed and cells were washed with phosphate buffered saline. The cells were lysed and luciferase activity was measured in a Luminometer. Luminescence units were plotted against the compound concentrations using Graphpad software.

[2] = Rodent pharmacokinetic study; type: in vivo, Male Wistar rats; conditions: male, Wistar, plasma, rat; for bioavailability: oral 3 mg/kg vs intravenous 1 mg/kg, read-out: F (%) Bioavailability
Method: Rodent Pharmacokinetic Study
Male Wistar rats (260±50 grams) were used as experimental animals. Animals were housed individually in polypropylene cage. Two days prior to study, male Wistar rats were anesthetized with isoflurane for surgical placement of jugular vein catheter. Rats were randomly divided for oral (3 mg/kg) and intravenous (1 mg/kg) dosing (n=3/group) and fasted overnight before oral dosing (p.o.). However, rats allocated to intravenous dosing food and water was provided ad libitum.
At pre-determined point, blood was collected through jugular vein and replenished with an equivalent volume of normal saline. Collected blood was transferred into a labeled eppendorf tube containing 10 μL of heparin as an anticoagulant. Typically blood samples were collected at following time points: 0.08, 0.25, 0.5, 1, 2, 4, 6, 8, and 24 h post dose. Blood was centrifuged at 4000 rpm for 10 minutes. Plasma was separated and stored frozen at −80° C. until analysis. The concentrations of the test compounds were quantified in plasma by qualified LC-MS/MS method using suitable extraction technique. The test compounds were quantified in the calibration range around 1-1000 ng/mL in plasma. Study samples were analyzed using calibration samples in the batch and quality control samples spread across the batch.
Pharmacokinetic parameters Cmax, AUCt, T1/2, Clearance and Bioavailability (F) were calculated by non-compartmental model using standard non-compartmental model by using Phoenix WinNonlin 6.0.4 version Software package.

Male Wistar rats = test: Object recognition task model; type: in vivo; conditions: rat, p.o.; for Exploration time mean ± S.E.M, Familiar object / Exploration time mean ± S.E.M, Novel object: choice trial 24 h after T1
Method: Object Recognition Task Model
Male Wistar rats (8-10 weeks old) were used as experimental animals. Four animals were housed in each cage. Animals were kept on 20% food deprivation from a day prior to experimentation. Water was provided ad libitum throughout the experiment. Animals were maintained on a 12 h light/dark cycle in temperature and humidity controlled room. The experiment was carried out in a circular or square arena made up of acrylic. Rats were habituated to individual arenas for up to 1 hour in the absence of any objects on day 1.
One group of 12 rats received vehicle and another set of animals received test compounds, before familiar (T1) and choice (T2) trials. During the familiarization phase, (T1), the rats were placed individually in the arena for 3 minutes, in which two identical objects (a1 and a2) were positioned 10 cm from the wall. 24 h after T1, trial for long-term memory test was performed. The same rats were placed in the same arena as they were placed in T1 trial. During the choice phase (T2) rats were allowed to explore the arena for 3 minutes in presence of a copy of familiar object (a3) and one novel object (b). During the T1 and T2 trial, explorations of each object (defined as sniffing, licking, chewing or having moving vibrissae whilst directing the nose towards the object at a distance of less than 1 cm) were recorded using stopwatch. • T1 is the total time spent exploring the familiar objects (a1+a2). • T2 is the total time spent exploring the familiar object and novel object (a3+b).
The object recognition test was performed as described in Behav. Brain Res., 1988, 31, 47-59.

[3] = Rodent brain penetration study; type: in vivo, Male Wistar rats; conditions: male, Wistar, brain and plasma, po; rat, 3 mg/kg p.o., brain-plasma ratio; read-out: Single dose Rat Brain Penetration (Cb/Cp) at 3 mg/kg, p.o.
Method: Rodent Brain Penetration Study
Male Wistar rats (260±40 grams) were used as experimental animals. Three animals were housed in each cage. Animals were given water and food ad libitum throughout the experiment and maintained on a 12 h light/dark cycle.
Brain penetration was determined in discrete manner in rats. One day prior to dosing day, male Wistar rats were acclimatized and randomly grouped according to their weight. At each time point (0.50, 1 and 2 h) n=3 animals were used.
The test compounds were suitably preformulated and administered orally at (free base equivalent) 3 mg/kg. Blood samples were removed via cardiac puncture by using isoflurane anesthesia. The animals were sacrificed to collect brain tissue. Plasma was separated and brain samples were homogenized and stored frozen at −20° C. until analysis. The concentrations of the test compounds in plasma and brain were determined using LC-MS/MS method.
The test compounds were quantified in plasma and brain homogenate by qualified LC-MS/MS method using suitable extraction technique. The test compounds were quantified in the calibration range of 1-500 ng/mL in plasma and brain homogenate. Study samples were analyzed using calibration samples in the batch and quality control samples spread across the batch. Extent of brain-plasma ratio (Cb/Cp) was calculated.

| EC50 [1] [µM] | AUC(0-t) ([2]; intravenous (bolus), 1 mg/kg) [ng·h/mL] | clearance ([2]; intravenous (bolus), 1 mg/kg) [mL/min/kg] | half-life ([2]; intravenous (bolus), 1 mg/kg) [h] | bioavailability [2] [%] | AUC(0-t) ([2]; oral (gavage), 3 mg/kg) [ng·h/mL] | Cmax ([2]; oral (gavage), 3 mg/kg) [ng/mL] | half-life ([2]; oral (gavage), 3 mg/kg) [h] | Kp [3] | Structure (SMILES) | Inference (Male Wistar rats; 3 mg/kg) | Exploration time mean ± S.E.M, Familiar object (Male Wistar rats; 3 mg/kg) [s] | Exploration time mean ± S.E.M, Novel object (Male Wistar rats; 3 mg/kg) [s] | Inference (Male Wistar rats; 1 mg/kg) | Exploration time mean ± S.E.M, Familiar object (Male Wistar rats; 1 mg/kg) [s] | Exploration time mean ± S.E.M, Novel object (Male Wistar rats; 1 mg/kg) [s] | Inference (Male Wistar rats; 0.1 mg/kg) | Exploration time mean ± S.E.M, Familiar object (Male Wistar rats; 0.1 mg/kg) [s] | Exploration time mean ± S.E.M, Novel object (Male Wistar rats; 0.1 mg/kg) [s] |
| --- | --- | --- | --- | --- | --- | --- | --- | --- | --- | --- | --- | --- | --- | --- | --- | --- | --- | --- |
| 0.976 | 569 ± 74 | 27 ± 1 | 5.7 ± 0.7 | 31 ± 6 | 532 ± 102 | 68 ± 22 | 7.9 ± 1.3 | 3.26 ± 0.02 | O=C(NC1CCOCC1)c1cc(Cc2ccc(Cl)cc2)c2cccn2n1 [Example 14, N-[Tetrahydropyran-4-yl]-4-(4-chlorobenzyl)-pyrrolo[1,2-b]pyridazine-2-carboxamide] | Active | 11.28 ± 2.18 | 23.08 ± 2.96 | – | – | – | – | – | – |
| 0.336 | 983 ± 91 | 17 ± 1.6 | 0.5 | 66 ± 18 | 1940 ± 520 | 933 ± 260 | 1 ± 0.1 | 0.26 ± 0.02 | Cn1cc(-c2ccc(Cc3cc(C(=O)NCC(C)(C)O)nn4cccc34)cc2)cn1 [Example 19, N-[2-hydroxy-2-methyl-propyl] 4-[4-(1-methyl-1H-pyrazol-4-yl)-benzyl]-pyrrolo[1,2-b]pyridazine-2-carboxamide] | – | – | – | – | – | – | – | – | – |
| 0.531 | 359 ± 58 | 47 ± 8 | 1.6 ± 0.3 | 5 ± 1 | 52 ± 8 | 16 ± 4 | 1.9 ± 1.1 | 0.38 | Cn1cc(-c2ccc(Cc3cc(C(=O)NCC4(O)CCCCC4)nn4cccc34)cc2)cn1 [Example 24, N-[l-Hydroxy-cyclohexylmethyl] 4-[4-(1-methyl-1H-pyrazol-4-yl)-benzyl]-pyrrolo[1,2-b]pyridazine-2-carboxamide] | – | – | – | – | – | – | – | – | – |
| 1.17 | 2280 ± 161 | 7.2 ± 0.5 | 1.5 ± 0.1 | 88 ± 4 | 6030 ± 279 | 1810 ± 327 | 2.2 ± 0.6 | 0.31 ± 0.04 | CC(C)(O)CNC(=O)c1cc(Cc2ccc(-c3cccnc3)cc2)c2cccn2n1 [Example 29, N-[2-Hydroxy-2-methyl-propyl] 4-[4-(3-pyridyl)-benzyl]-pyrrolo[1,2-b]pyridazine-2-carboxamide] | – | – | – | Active | 12.17 ± 1.26 | 22.26 ± 1.05 | – | – | – |
| 1.55 | 576 ± 192 | 30.3 ± 8.9 | 1.5 ± 0.4 | 114 ± 20 | 1960 ± 360 | 363 ± 40 | 2.8 ± 0.1 | 1.41 ± 0.19 | O=C(NC1CCOCC1)c1cc(Cc2ccc(-c3ccncc3)cc2)c2cccn2n1 [Example 31, N-[Tetrahydropyran-4-yl] 4-[4-(4-pyridyl)-benzyl]-pyrrolo[1,2-b]pyridazine-2-carboxamide] | – | – | – | – | – | – | Active | 14.19 ± 1.02 | 20.18 ± 1.21 |
